We go through two molecules from patent US20200276094A1, “COMPOSITIONS FOR SKIN EXPOLIATION AND USE THEREOF” (Allergan, Inc., priority 2011, published 2020).

The structures appear in SMILES notation. “Also recorded” adds a separate entry of the source.

The subject of data set [1] is subjects with mild to moderate photodamage. The data set can be described thus: Study 3: Retinol 3% (oil-free) vs. RA 0.3%, split-face single-blind clinical study, series of three peel procedures.
Data set [2] has as its system subjects having Fitzpatrick Skin Types I-IV. As to conditions: split-face: Retinoic Acid 0.3% right side vs Retinol 2% left side; 7-day; FIG. 1.
Setting [3] is: FIG. 8, post-peel #3, blinded photograph evaluation by an expert physician.

Take `CC1=C(/C=C/C(C)=C/C=C/C(C)=C/C(=O)O)C(C)(C)CCC1` [Retinoic Acid]: in data set [1] (FIG. 5), the “subjects preferred treated side, post-peel #1 subject assessment” value is on record as 10 % of subjects. For the same molecule, the “subjects preferred treated side, post-peel #2 subject assessment” value in data set [1] (FIG. 6) was 10 % of subjects. Moreover, the “subjects preferred treated side, post-peel #3 subject assessment” value in data set [1] (FIG. 7) is listed as 0 % of subjects. Further, in data set [2], the “stinging/burning and tightness (investigator and subject assessments)” value is reported as “more”.

`CC1=C(/C=C/C(C)=C/C=C/C(C)=C/CO)C(C)(C)CCC1` [retinol, (2E,4E,6E,8E)-3,7-dimethyl-9-(2,6,6-trimethylcyclohex-1-enyl)nona-2,4,6,8-tetraen-1-ol]: the “investigator noticed no difference between the sides” value in data set [1] (FIG. 4, Retinol 3% (oil-free) vs Retinoic Acid 0.3%) is 95 % of subjects. The “subjects felt no difference between the sides, post-peel #1” value in data set [1] (FIG. 5, Retinol 3% (oil-free) vs Retinoic Acid 0.3%) is 75 % of subjects. For the same molecule, the “subjects preferred treated side, post-peel #1 subject assessment” value in data set [1] (FIG. 5) is recorded as 15 % of subjects. Also, the “subjects felt no difference between the sides, post-peel #2” value in data set [1] (FIG. 6, Retinol 3% (oil-free) vs Retinoic Acid 0.3%) is given as 85 % of subjects. For the same molecule, the “subjects preferred treated side, post-peel #2 subject assessment” value in data set [1] (FIG. 6) is 5 % of subjects. Moreover, in data set [1] (FIG. 7, Retinol 3% (oil-free) vs Retinoic Acid 0.3%), the “subjects felt no difference between the sides, post-peel #3” value was 95 % of subjects. Besides, the “subjects preferred treated side, post-peel #3 subject assessment” value in data set [1] (FIG. 7) was 5 % of subjects. In addition, in data set [1] (setting [3]), the “improvement in fine lines and wrinkles compared to retinoic acid” value is “about twice as much improvement; also recorded: superior efficacy”; the “improvement in photodamage compared to retinoic acid” value is on record as “about twice as much improvement; also recorded: superior efficacy”; the “improvement in unevenness of skin tone compared to retinoic acid” value was “about twice as much improvement; also recorded: superior efficacy”. Moreover, in data set [1] (end of treatment, one subject), the “subjects demonstrating a difference favoring the treated side” value stood at 5%. The “adverse reaction on treated side” value in data set [1] (one subject, treated with topical hydrocortisone for 3 days, resolved, no reaction on re-challenge) is “irritation (rash, redness)”.
